Drawing on US20250230171A1 (MOMA Therapeutics, Inc., priority 2023, published 2025), this text covers IC50 for 41 molecules.

The test system of the first experiment is DLD1 BRCA2 (−/−) cells. Put plainly: 7-day cell viability assay (CellTiter-Glo), DLD1 BRCA2 (−/−). Type of experiment: cell-based, human. As to conditions: 7-day CellTiter-Glo, n=2, read-out: Viability IC50 (uM) DLD1 BRCA2 null. The protocol:
Cell lines DLD1 WT and DLD1 BRCA2 (−/−) (Horizon Discovery Cat No. HD PAR-008 and HD-105-007) were plated in 384-well culture plates at seeding densities of 100cells/50 ul/well and 200 cells/50 uL/well respectively. The seeding densities are pre-determined from the growth curve kinetics performed to ensure log linear phase of cell growth for these 2 cell lines. These assay plates are then placed in the incubator at 37° C., 5% CO2, relative humidity >90% for a few hours before addition of test compounds. Compounds are dispensed using the Tecan HPD300 or Echo based on the plate map in the appropriate wells of the 384-well plates. The cells are treated with nine-point dose response with 3-fold serial dilutions of test compounds starting at 10 uM top concentration. After addition of the test compounds, the plates are incubated at 37° C., 5% CO2, relative humidity >90% for 7 days. CellTiter-Glo (Promega Cat. No. G7573), ATP detection reagent is prepared according to manufacturer's specifications. Cell assay plates are removed from incubator and bring to room temperature (RT) by letting them sit at bench top for at least 15 min. Using the MultiDrop liquid handler or a multichannel pipette, 35 μL/well of CTG is added and the plates are then placed shakes for 5 seconds, RT.
Take “2′-Chloro-N-(5-(6-chloro-4-methylpicolinoyl)-5,6-dihydro-4H-pyrrolo[3,4-d]thiazol-2-yl)-5′-methoxy-6-methyl-[4,4′-bipyridine]-3-carboxamide [Example 390]”: the half-maximal inhibitory concentration (IC50) is 0.001 to 0.1 µM. Still for that read-out and setting: in the case of “2′-chloro-5′-methoxy-N-(5-(8-methoxyimidazo[1,5-a]pyridine-5-carbonyl)-5,6-dihydro-4H-pyrrolo[3,4-d]thiazol-2-yl)-6-methyl-[4,4′-bipyridine]-3-carboxamide [Example 627]” it was 0.001 to 0.1 µM.

The same experiment, now with this note: Homo sapiens, DLD-1, 168 h, 7-day viability, n=2, read-out: Viability IC50 (uM) DLD1 BRCA2 null.
Take `COc1cnc(Cl)cc1-c1cc(C)ncc1C(=O)Nc1nc2c(s1)CN(C(=O)c1ccc(Cl)nc1OC)C2` [Example 20, 2′-chloro-N-(5-(6-chloro-2-methoxynicotinoyl)-5,6-dihydro-4H-pyrrolo[3,4-d]thiazol-2-yl)-5′-methoxy-6-methyl-[4,4′-bipyridine]-3-carboxamide]: the IC50 was in the range of 0.001 to 0.1 µM.

In the next experiment the target is biotinylated Avi-POLθ[2-894] (Homo sapiens (Human), UniProt O75417). As to the kind of experiment: POLθ ATPase assay (ADP-Glo). As to conditions: POLθ ATPase, ADP-Glo; n=2; read-out: Biochemical ATPase ADPGlo IC50.
Chain of biotinylated Avi-POLθ[2-894] (O75417 2-894): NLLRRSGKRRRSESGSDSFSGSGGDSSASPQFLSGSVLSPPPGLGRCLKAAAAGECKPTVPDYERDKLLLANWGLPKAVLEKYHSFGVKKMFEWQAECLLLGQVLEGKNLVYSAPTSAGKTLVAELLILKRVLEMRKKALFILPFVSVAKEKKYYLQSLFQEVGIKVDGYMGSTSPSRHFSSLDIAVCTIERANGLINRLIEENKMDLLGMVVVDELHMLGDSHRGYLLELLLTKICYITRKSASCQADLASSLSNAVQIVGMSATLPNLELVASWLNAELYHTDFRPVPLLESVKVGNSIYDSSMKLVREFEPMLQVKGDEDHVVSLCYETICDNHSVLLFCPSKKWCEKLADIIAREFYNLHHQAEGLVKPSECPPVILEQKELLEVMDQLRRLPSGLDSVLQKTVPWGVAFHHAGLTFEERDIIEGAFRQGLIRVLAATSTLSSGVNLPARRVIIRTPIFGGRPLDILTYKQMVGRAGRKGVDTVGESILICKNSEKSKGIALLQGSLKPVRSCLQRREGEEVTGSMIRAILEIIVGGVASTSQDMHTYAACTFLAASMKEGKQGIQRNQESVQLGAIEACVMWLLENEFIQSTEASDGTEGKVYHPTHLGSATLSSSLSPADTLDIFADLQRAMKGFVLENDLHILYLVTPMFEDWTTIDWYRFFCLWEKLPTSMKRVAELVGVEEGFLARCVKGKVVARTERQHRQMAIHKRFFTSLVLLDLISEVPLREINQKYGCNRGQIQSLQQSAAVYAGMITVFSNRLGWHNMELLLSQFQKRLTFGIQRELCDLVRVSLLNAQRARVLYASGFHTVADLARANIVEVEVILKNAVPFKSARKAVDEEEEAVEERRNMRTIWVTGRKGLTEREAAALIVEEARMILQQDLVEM
In the case of “2′-Chloro-N-(5-(6-chloro-4-methylpicolinoyl)-5,6-dihydro-4H-pyrrolo[3,4-d]thiazol-2-yl)-5′-methoxy-6-methyl-[4,4′-bipyridine]-3-carboxamide [Example 390]”, the IC50 lay in the range of 1 to 15 nM. For the molecule `COc1cnc(Cl)cc1-c1cc(C)ncc1C(=O)Nc1nc2c(s1)CN(C(=O)c1cnc(C(F)(F)F)nc1)C2` [Example 483], the IC50 fell in the range of 1 to 15 nM. Take `COc1cnc(Cl)cc1-c1cc(C)ncc1C(=O)Nc1nc2c(s1)CN(C(=O)c1cccnc1OC(F)F)C2` [Example 525]: the IC50 lay within 1 to 15 nM. For the molecule `COc1cncc(C(=O)N2Cc3nc(NC(=O)c4cnc(C)cc4-c4cc(Cl)ncc4OC)sc3C2)n1` [Example 528], the IC50 was in the range of 1 to 15 nM. `COc1cnc(Cl)cc1-c1cc(C)ncc1C(=O)Nc1nc2c(s1)C[C@@H](C(=O)N[C@H]1C[C@H](O)C1)CC2` [Example 669]: the IC50 was 150 to 900 nM. Turning to `COc1cnc(Cl)cc1-c1cc(C)ncc1C(=O)Nc1nc2c(s1)C[C@@H](C(=O)N1CC[C@@H](O)C1)CC2` [Example 681], the IC50 lay in the range of 150 to 900 nM. The same measure, in the same setting: then `COc1cnc(Cl)cc1-c1cc(C)ncc1C(=O)Nc1nc2c(s1)CN(C(=O)[C@@H]1CC[C@](O)(C(F)(F)F)C1)C2` [Example 734, 2′-chloro-N-(5-((1R,3R)-3-hydroxy-3-(trifluoromethyl)cyclopentane-1-carbonyl)-5,6-dihydro-4H-pyrrolo[3,4-d]thiazol-2-yl)-5′-methoxy-6-methyl-[4,4′-bipyridine]-3-carboxamide], with 1 to 15 nM; and `COc1cnc(Cl)cc1-c1cc(C)ncc1C(=O)Nc1nc2c(s1)CN(C(=O)[C@H]1CC[C@](O)(C(F)(F)F)C1)C2` [Example 736, 2′-chloro-N-(S-((1S,3R)-3-hydroxy-3-(trifluoromethyl)cyclopentane-1-carbonyl)-5,6-dihydro-4H-pyrrolo[3,4-d]thiazol-2-yl)-5′-methoxy-6-methyl-[4,4′-bipyridine]-3-carboxamide], with 1 to 15 nM; and `COc1cnc(Cl)cc1-c1cc(C)ncc1C(=O)Nc1nc2c(s1)CN(C(=O)[C@@H]1CCC[C@](O)(C(F)(F)F)C1)C2` [Example 761], with 1 to 15 nM. Still for that read-out and setting: in the case of `COc1nc(C(=O)N2Cc3nc(NC(=O)c4cnc(C)cc4-c4cc(Cl)cnc4O)sc3C2)c(C)cc1C(F)(F)F` [Example 1043, 5-chloro-2-hydroxy-N-(5-(6-methoxy-3-methyl-5-(trifluoromethyl)picolinoyl)-5,6-dihydro-4H-pyrrolo[3,4-d]thiazol-2-yl)-6′-methyl-[3,4′-bipyridine]-3′-carboxamide] it was no less than 900 nM; in that of `COc1nc(C(F)(F)F)ccc1C(=O)N1Cc2nc(NC(=O)c3cnc(C)cc3-c3cc(Cl)c[nH]c3=O)sc2C1` [Example 1045, 5-chloro-N-(5-(2-methoxy-6-(trifluoromethyl)nicotinoyl)-5,6-dihydro-4H-pyrrolo[3,4-d]thiazol-2-yl)-6′-methyl-2-oxo-1,2-dihydro-[3,4′-bipyridine]-3′-carboxamide], no less than 900 nM.

Still in this experiment, the particulars now being: n=2; read-out: Biochemical ATPase ADPGlo IC50.
Turning to `COc1cnc(Cl)cc1-c1cc(C)ncc1C(=O)Nc1nc2c(s1)CN(C(=O)c1ccc(Cl)nc1OC)C2` [Example 20, 2′-chloro-N-(5-(6-chloro-2-methoxynicotinoyl)-5,6-dihydro-4H-pyrrolo[3,4-d]thiazol-2-yl)-5′-methoxy-6-methyl-[4,4′-bipyridine]-3-carboxamide], the IC50 lay in the range of 1 to 15 nM.

Consider `COc1cnc(Cl)cc1-c1cc(C)ncc1C(=O)Nc1nc2c(s1)CN(C(=O)[C@H]1C[C@](O)(C(F)F)C1)C2` [Example 195], for which the IC50 was in the range of 1 to 15 nM. Same read-out and setting: in the case of `COc1cnc(Cl)cc1-c1cc(C)ncc1C(=O)Nc1nc2c(s1)C[C@@H](NC(=O)C1CC1)CC2` [Example 200] it was 50 to 150 nM; in that of `COc1cnc(Cl)cc1-c1cc(C)ncc1C(=O)Nc1nc2c(s1)CN(C(=O)C1CC(O)(C(F)(F)F)C1)C2` (stereo not shown) [Example 204], 1 to 15 nM; in that of `COc1ccc(C#N)cc1-c1cc(C)ncc1C(=O)Nc1nc2c(s1)CN(C(=O)C1CC1OC)CC2` (stereo not shown) [Example 207], 15 to 50 nM. Same read-out and setting: then `COc1ccc(C#N)cc1-c1cc(C)ncc1C(=O)Nc1nc2c(s1)CN(C(=O)C1CC1C)CC2` (stereo not shown) [Example 211], with 15 to 50 nM; and `COc1ccc(C#N)cc1-c1cc(C)ncc1C(=O)Nc1nc2c(s1)CN(S(=O)(=O)C1COC1)C2` [Example 217], with 50 to 150 nM. Turning to `COc1ccc(C#N)cc1-c1cc(C)ncc1C(=O)Nc1nc2c(s1)CN(C(=O)[C@H]1C[C@H](OC)C1)C2` [Example 221], the 50% inhibitory concentration (IC50) lay in the range of 15 to 50 nM. With `COc1ccc(C#N)cc1-c1cc(C)ncc1C(=O)Nc1nc2c(s1)CN(C(=O)[C@@H]1CCCOC1)CC2` [Example 223], the IC50 lay within 150 to 900 nM. Take `COc1ccc(C#N)cc1-c1cc(C)ncc1C(=O)Nc1nc2c(s1)CN(C(=O)C1CCC1)CC2` [Example 224]: the IC50 lay within 150 to 900 nM. `COc1ccc(C#N)cc1-c1cc(C)ncc1C(=O)Nc1nc2c(s1)CN(S(=O)(=O)NC1CCCC1)C2` [Example 230]: the half-inhibitory concentration (IC50) is 1 to 15 nM. Turning to `COc1cnc(Cl)cc1-c1cc(C)ncc1C(=O)Nc1nc2c(s1)CN(S(=O)(=O)C1CC1)C2` [Example 234], the IC50 lay within 1 to 15 nM. As to `COc1ccc(C#N)cc1-c1cc(C)ncc1C(=O)Nc1nc2c(s1)CN(C(=O)[C@@H]1CC[C@H]1OC)C2` [Example 235], the IC50 is 1 to 15 nM. Same read-out and setting: in the case of `COc1ccc(C#N)cc1-c1cc(C)ncc1C(=O)Nc1nc2c(s1)CN(C(=O)c1ccccn1)CC2` [Example 247] it was 150 to 900 nM; in that of `COc1ccccc1-c1cc(C)ncc1C(=O)Nc1nc2c(s1)CN(C(=O)c1nc3ccccn3n1)C2` [Example 252], 50 to 150 nM. For `COc1ccccc1-c1cc(C)ncc1C(=O)Nc1nc2c(s1)CN(C(=O)c1cccc3ccnn13)C2` [Example 253], the IC50 is 15 to 50 nM. Regarding `COc1ccccc1-c1cc(C)ncc1C(=O)Nc1nc2c(s1)CN(C(=O)C1COC1)C2` [Example 256], the IC50 lay within 150 to 900 nM. Turning to `COc1ccc(C#N)cc1-c1cc(C)ncc1C(=O)Nc1nc2c(s1)CN(C(=O)[C@@H]1CCCO1)C2` [Example 261], the IC50 fell in the range of 15 to 50 nM. Regarding `COc1ccccc1-c1cc(C)ncc1C(=O)Nc1nc2c(s1)CN(S(=O)(=O)NC(C)C)C2` [Example 280], the IC50 fell in the range of 50 to 150 nM. Consider `COc1ccccc1-c1cc(C)ncc1C(=O)Nc1nc2c(s1)CN(C(=O)c1ccccn1)C2` [Example 323], for which the 50% inhibitory concentration (IC50) fell in the range of 150 to 900 nM. Regarding `COc1ccccc1-c1cc(C)ncc1C(=O)Nc1nc2c(s1)CN(C(=O)C1CCCCO1)C2` (stereo not shown) [Example 324, 4-(2-methoxyphenyl)~6-methyl-N-(5-{3-oxabicyclo[3.1.0]hexane-6-carbonyl}-4H,5H,6H-pyrrolo[3,4-d][1,3]thiazol-2-yl)pyridine-3-carboxamide], the IC50 is 150 to 900 nM. On to `COc1ccccc1-c1cc(C)ncc1C(=O)Nc1nc2c(s1)CC(c1ccc(Cl)cc1)=CC2` [Example 328], for which the IC50 was 150 to 900 nM. As for `COc1ccccc1-c1cc(C)ncc1C(=O)Nc1nc2c(s1)CN(C(=O)OC(C)(C)C)CC2` [Example 335], the IC50 is 150 to 900 nM. With `COc1ccccc1-c1cc(C)ncc1C(=O)Nc1nc2c(s1)CN(C(=O)c1cccnn1)C2` [Example 342, 4-(2-methoxyphenyl)~6-methyl-N-[5-(1-methyl-6-oxo-1,6-dihydropyridine-3-carbonyl)-4H,5H,6H-pyrrolo[3,4-d][1,3]thiazol-2-yl]pyridine-3-carboxamide], the IC50 is 150 to 900 nM. With `COc1ccccc1-c1cc(C)ncc1C(=O)Nc1nc2c(s1)CN(C(=O)C1CCNC1=O)C2` (stereo not shown) [Example 345], the IC50 was in the range of 150 to 900 nM. With `COc1ccccc1-c1cc(C)ncc1C(=O)Nc1nc2c(s1)CN(C1CC1)C2=O` [Example 352, N-(5-cyclopropyl-4-oxo-5,6-dihydro-4H-pyrrolo[3,4-d]thiazol-2-yl)-4-(2-methoxyphenyl)-6-methylnicotinamide], the IC50 was no less than 900 nM. For `COc1ccccc1-c1cc(C)ncc1C(=O)Nc1nc2c(s1)CC(=O)CC2` [Example 373], the half-maximal inhibitory concentration (IC50) is no less than 900 nM. For the molecule “N-(5-(1H-pyrazole-4-carbonyl)-5,6- dihydro-4H-pyrrolo[3,4-d]thiazol-2-yl)- 2′-chloro-5′-methoxy-6-methyl-[4,4′- bipyridine]-3-carboxamide [Example 88]”, the IC50 is 15 to 50 nM. Turning to “N-(5-(1H-pyrazole-5-carbonyl)-5,6- dihydro-4H-pyrrolo[3,4-d]thiazol-2-yl)- 2′-chloro-5′-methoxy-6-methyl-[4,4′- bipyridine]-3-carboxamide [Example 86]”, the IC50 was 1 to 15 nM.
